Measurements taken from ChEMBL document CHEMBL5442168, “ASAP - In vitro liver microsomal stability” (2024).
Values joined by “and” are separate entries in the source; they are usually repeats but may differ in a detail not shown here. Equal values may be shown once.

Experiments:
[1] = (§1) Mouse liver microsomal stability of compound in microsomal protein, PBS buffer pH 7.4, NADPH, glucose-6-phosphate and glucose-6-phosphate dehydrogenase media. Aliquotes were taken at 5 time points and after stopping the reaction, supernatants were analyzed using HPLC coupled with a tandem mass spectrometer. The elimination constant, half-life, and intrinsic clearance are determined as results using linear regression analysis. The assay has been performed by Enamine biological services, Bienta Ltd.The protocol is publicly available: dx.doi.org/10.17504/protocols.io.5qpvokdb9l4o/v1; type: ADME, microsomes, Microsome; conditions: for half-life / microsomal CLint: liver microsomes; for CLint / Remaining / Remaining (without cofactor) / T1/2: microsomes
[2] = as §1, with “Human” for “Mouse”; type: ADME, microsomes, Microsome; conditions: for half-life / microsomal CLint: liver microsomes; for CLint / Remaining / Remaining (without cofactor) / T1/2: microsomes
Throughout, for Remaining (without cofactor): time not given here.
Throughout, for Remaining: time not given here.

Row | Structure (SMILES) | half-life [1] [min] | microsomal CLint [1] [µL/min/mg] | CLint [1] [µL/min/mg] | Remaining [1] | Remaining (without cofactor) [1] | T1/2 [1] [min] | half-life [2] [min] | microsomal CLint [2] [µL/min/mg] | CLint [2] [µL/min/mg] | Remaining [2] | Remaining (without cofactor) [2] | T1/2 [2] [min]
1 | CC(C)[C@@H](Nc1ncnc2[nH]ccc12)c1ccc2c(c1)NC(=O)CO2 | 21.4 | 78 | 80 | 27% and 26% | 93% and 110% | 20.9 | 79 | 21 | 31 | 73% and 56% | 105% and 92% | 54.3
2 | CCNC(=O)c1cc2c(N[C@@H](c3ccc4c(c3)S(=O)(=O)NCC4)C(C)C)ncnc2[nH]1 | 36.8 | 45 | – | 49% | 101% | – | 19.7 | 85 | – | 24% | 107% | –
3 | CC(C)[C@H](Nc1ncnc2[nH]c(-c3cnn(C)c3C#N)cc12)c1ccc2c(n1)OCCO2 | 20.7 | 81 | – | 27% | 96% | – | 100 | 17 | – | 78% | 116% | –
4 | CC(C)[C@H](Nc1ncnc2[nH]ccc12)c1ccc2c(c1)S(=O)(=O)CCC2 | 8.1 | 207 | – | 3% | 104% | – | 29.5 | 57 | – | 37% | 92% | –
5 | CC(C)[C@@H](Nc1ncnc2[nH]c(-c3cnn(CC(N)=O)c3)cc12)c1ccc2c(n1)OCCO2 | 145 | 12 | 9 | 83% and 90% | 104% and 102% | 182.3 | 120 | 14 | 18 | 77% | 95% | 91.8
6 | CC(C)[C@@H](Nc1ncnc2[nH]c(-c3cnn(CCC(N)=O)c3)cc12)c1ccc2c(c1)OCCO2 | 27.1 | 62 | – | 36% | 106% | – | 16.9 | 99 | – | 19% | 108% | –
7 | CC(C)(C)[C@@H](Nc1ncnc2[nH]c(-c3cnn(CC(N)=O)c3)cc12)c1ccc2c(n1)OCCO2 | 53.1 | 31 | 30 | 60% and 59% | 90% and 109% | 56.2 | 46 | 36 | 42 | 55% and 49% | 96% and 107% | 39.8
8 | CC(C)[C@@H](Nc1ncnc2[nH]c(-c3cnn(CC(N)=O)c3)cc12)c1ccc2c(c1)S(=O)(=O)CCC2 | 27.4 | 61 | 96 | 37% and 20% | 109% and 111% | 17.4 | 14.4 | 116 | 115 | 15% | 95% and 103% | 14.5
9 | CC(C)[C@@H](Nc1ncnc2[nH]c(-c3cnn(CC(=O)N(C)C)c3)cc12)c1ccc2c(c1)OCCO2 | 28.1 | 59 | 45 | 39% and 48% | 98% and 114% | 36.8 | 11.8 | 142 | 108 | 9% and 18% | 110% and 114% | 15.4
10 | CC(C)[C@@H](Nc1ncnc2[nH]c(-c3cnn(C)c3C#N)cc12)c1ccc2c(n1)NC(=O)CO2 | 11.5 | 145 | 189 | 9% and 5% | 92% | 8.8 | 23.7 | 70 | 51 | 30% and 43% | 97% and 98% | 32.6
11 | CC(C)[C@@H](Nc1ncnc2[nH]c(-c3cnn(C)c3C#N)cc12)c1ccc2c(c1)S(=O)(=O)CCC2 | 3.8 | 440 | 709 | 0% | 96% and 106% | 2.4 | 3.4 | 490 | 516 | 1% and 0% | 94% and 101% | 3.2
12 | Cn1ncc(-c2cc3c(N[C@@H](c4ccc5c(c4)OCCO5)C(C)(C)C)ncnc3[nH]2)c1C#N | 8.4 | 199 | – | 4% | 100% | – | 19.6 | 85 | – | 22% | 109% | –
13 | CNC(=O)Cn1cc(-c2cc3c(N[C@@H](c4ccc5c(c4)OCCO5)C(C)C)ncnc3[nH]2)cn1 | 35.7 | 47 | – | 46% | 90% | – | 14 | 119 | – | 14% | 92% | –
14 | C[C@@H](C(=O)O)[C@@H](NC(=O)c1ncnc2[nH]ccc12)c1ccc(Br)cc1 | 433 | 4 | – | 94% | 109% | – | 338 | 5 | – | 103% | 110% | –
15 | CC(C)(C)[C@@H](Nc1ncnc2[nH]c(-c3cnn(CC(N)=O)c3)cc12)c1ccc2c(c1)OCCO2 | 35.2 | 47 | 39 | 46% and 54% | 107% and 106% | 43.1 | 12.6 | 133 | 100 | 11% and 18% | 87% and 109% | 16.8
16 | CNC(=O)c1c[nH]c2ncnc(N[C@@H](c3ccc4c(c3)S(=O)(=O)CCC4)C(C)C)c12 | 8.7 | 192 | 113 | – | 92% and 108% | 14.7 | 12.8 | 131 | 108 | 11% and 17% | 104% and 94% | 15.4
17 | CC(C)[C@H](Nc1ncnc2[nH]c(-c3cnn(CC(N)=O)c3)cc12)c1ccc2c(c1)OCCO2 | 104 | 16 | – | 80% | 104% | – | 35.4 | 47 | – | 43% | 102% | –
18 | CC(C)[C@@H](Nc1ncnc2[nH]c(-c3cnn(C)c3C#N)cc12)c1ccc2c(c1)NC(=O)CO2 | 9.4 | 177 | 147 | 6% and 10% | 97% and 102% | 11.3 | 16.6 | 100 | 52 | 18% and 44% | 93% and 109% | 32.3
19 | CNC(=O)c1c[nH]c2ncnc(N[C@@H](c3ccc4c(c3)NC(=O)CO4)C(C)C)c12 | 14.8 | 113 | – | 16% | 95% | – | 19.5 | 86 | – | 23% | 98% | –
20 | COCCNC(=O)c1c[nH]c2ncnc(N[C@@H](c3ccc4c(c3)S(=O)(=O)CCC4)C(C)C)c12 | 1.9 | 888 | – | 0% | 99% | – | 3.1 | 540 | – | 0% | 106% | –
21 | CC(C)[C@@H](Nc1ncnc(N)c1Cl)c1ccc2c(c1)S(=O)(=O)CCC2 | 8.2 | 204 | – | 4% | 102% | – | 21 | 79 | – | 27% | 101% | –
22 | CC(C)[C@@H](Nc1ncnc2[nH]c(-c3cnn(CC(N)=O)c3)cc12)c1ccc2c(c1)NC(=O)CO2 | 156 | 11 | – | 84% | 102% | – | 99.2 | 17 | – | 73% | 91% | –
23 | COc1ccc([C@@H](NC(=O)c2[nH]cnc3nccc2-3)C(C)c2nnn[nH]2)cc1 (stereo partly specified) | 2880 | 1 | – | 99% | 92% | – | 799 | 2 | – | 92% | 103% | –
24 | CC(C)[C@H](Nc1ncnc2[nH]c(-c3cnn(C)c3C#N)cc12)c1ccc2c(c1)OCCO2 | 6.5 | 257 | – | 2% | 113% | – | 2.4 | 706 | – | 1% | 103% | –
